1 molecule from article PMC6264278, “Corydaline Inhibits Multiple Cytochrome P450 and UDP-Glucuronosyltransferase Enzyme Activities in Human Liver Microsomes” (Molecules, 2011) can be followed below.

Usually Ki stands for a measure of affinity in units of concentration, obtained from inhibition or displacement. Usually IC50 stands for the midpoint of a concentration-inhibition curve. Read a low IC50 as greater potency.

Structures are written as SMILES.

The target in the test is T1, UGT1A1 (Homo sapiens, UniProt P22309).
T1 construct: using pooled human liver microsomes; tissue BD Gentest Co. H161; host or cells: pooled human liver microsomes
T1 sequence (P22309 26-533): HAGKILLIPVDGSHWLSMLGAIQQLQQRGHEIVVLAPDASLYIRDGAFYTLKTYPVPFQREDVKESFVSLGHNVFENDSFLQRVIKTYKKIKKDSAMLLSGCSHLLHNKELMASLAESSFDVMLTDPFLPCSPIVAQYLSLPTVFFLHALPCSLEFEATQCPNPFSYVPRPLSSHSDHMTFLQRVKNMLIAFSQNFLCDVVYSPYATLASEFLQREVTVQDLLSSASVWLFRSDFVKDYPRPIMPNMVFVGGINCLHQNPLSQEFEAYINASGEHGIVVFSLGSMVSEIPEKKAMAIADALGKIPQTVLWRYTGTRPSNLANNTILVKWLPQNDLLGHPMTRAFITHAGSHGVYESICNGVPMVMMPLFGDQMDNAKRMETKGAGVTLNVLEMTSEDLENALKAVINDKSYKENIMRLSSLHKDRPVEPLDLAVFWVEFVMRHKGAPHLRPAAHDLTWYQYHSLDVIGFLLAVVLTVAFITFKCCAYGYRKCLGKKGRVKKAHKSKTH
Put plainly: UGT1A1 17β-estradiol 3-glucuronidation inhibition in pooled human liver microsomes. Format: in vitro ADME. The method, then:
The inhibitory potencies (IC50 values) of corydaline were also determined with UGT assays in the presence and absence of corydaline (final concentrations of 1–1,000 μM with acetonitrile concentration less than 0.5% v/v) using pooled human liver microsomes. 17β-Estradiol 3-glucuronidation, trifluoperazine glucuronidation, propofol glucuronidation, and azidothymidine glucuronidation activities were determined as probe activities for UGT1A1, UGT1A4, UGT1A9, and UGT2B7, respectively, using LC/MS/MS. Incubation mixtures were prepared in a total volume of 100 μL, as follows: Pooled human liver microsomes (0.2 mg/mL for 17β-estradiol, trifluoperazine and azidothymidine; 0.1 mg/mL for propofol), 2 mM UDPGA, 25 μg/mL alamethicin, 10 mM MgCl2, 50 mM tris buffer (pH 7.4), UGT-isoform specific probe substrate (20 μM 17β-estradiol for UGT1A1, 5 μM trifluoperazine for UGT1A4, 10 μM propofol for UGT1A9, or 100 μM azidothymidine for UGT2B7), and various concentrations of corydaline (1−1000 μM). Reactions were initiated by addition of UDPGA, and incubations were carried out at 37 °C in a shaking water bath for 30 min. […]
Glucuronides produced from UGT isoform-specific substrates were respectively determined by LC/MS/MS. […] Quantification was performed by SRM of the [M+H]^+ ion for trifluoperazine glucuronide and azidothymidine glucuronide or [M−H]^− for 17β-estradiol 3-glucuronide and propofol glucuronide and the related product ion for each metabolite.
Reactions were initiated by addition of NADPH at 37 °C and stopped after 15 min by placement of the incubation tubes on ice and addition of ice-cold methanol (100 μL) containing an internal standard (2.0 μg/mL ^13C6-4-hydroxydiclofenac for diclofenac, 0.5 μg/mL d3-4-hydroxymephenytoin for mephenytoin, or 0.5 μg/mL d9-1-hydroxy-bufuralol for bufuralol). The incubation mixtures were centrifuged at 13,000 × g for 5 min, and aliquots (5 μL) of the supernatants were analyzed by LC/MS/MS. […] Aliquots (5 μL) were analyzed by LC/MS/MS. […]
(In general: Liver microsomes are vesicles of endoplasmic reticulum, rich in cytochrome P450 enzymes.)

For the molecule `COc1cc2c(cc1OC)C1C(C)c3ccc(OC)c(OC)c3CN1CC2` (stereo not drawn) [Corydaline, 2,3,9,10-tetramethoxy-13-methyl-5,8,13,13a-tetrahydro-6H-isoquino[3,2-a]isoquinoline], the Ki (human liver microsomes, 10-80 μM 17β-estradiol, mixed competitive-noncompetitive equation) was 57.6 ± 13 µM. Further, the “α (mix of competitive and noncompetitive mechanisms), UGT1A1 17β-estradiol 3-glucuronidation” value (mixed competitive-noncompetitive equation, nonlinear regression) is 0.555. Also, the midpoint of inhibition (pooled human liver microsomes (H161), 20 μM 17β-estradiol, mean ± SD, n = 3), the IC50, lay at 137 ± 16.2 µM.
